Where two headings read alike, the source gives them in different places.
What was measured:
diamondback moth = assay: Insecticidal test on diamondback moth; type: in vivo; settings: Plutella xylostella, 144 h
Experimental: A wettable powder prepared in accordance with Formulation Example 2 was diluted with water to a concentration of an active ingredient of 500 ppm. Cabbage leaves were dipped in this solution and dried in air and then put in a plastic cup having a capacity of 60 mL. 10 second-instar larvae of diamondback moth were released in the cup and the cup was lidded. Then, the cup was placed in a thermostatic chamber at 25° C. for 6 days, and dead moths were counted for calculation of the mortality by Equation 2. The test was carried out by one series system.

two-spotted spider mites = assay: Miticidal test on two-spotted spider mites (seedling dip); type: in vivo, Tetranvchus urticae; settings: Glycine max, 312 h, read-out: protective value
Experimental: A wettable powder prepared in accordance with Formulation Example 2 was diluted with water to a concentration of an active ingredient of 500 ppm. Soybean seedlings which had been inoculated with imago two-spotted spider mites were dipped in the solution and dried in air. The treated soybean seedlings were placed in a thermostatic chamber at 25° C. for 13 days, and the number of live mites were assessed for calculation of the protective value by Equation 1. The test was carried out by one series system.

cotton aphid = assay: Insecticidal test on cotton aphid (seedling dip); type: in vivo; settings: Aphis gossypii, in Cucumis sativus, 72 h
Experimental: A wettable powder prepared in accordance with Formulation Example 2 was diluted with water to a concentration of an active ingredient of 500 ppm. Cucumber seedlings which had been inoculated with larvae of cotton aphid were dipped in this solution and dried in air. The treated cucumber seedlings were placed in a thermostatic chamber at 25° C. for 3 days, and the live insects were counted for calculation of the mortality by Equation 2. The test was carried out by one series system.

brown rice planthopper = assay: Insecticidal test on brown rice planthopper; type: in vivo; settings: 144 h
Experimental: A wettable powder prepared in accordance with Formulation Example 2 was diluted with water to a concentration of an active ingredient of 500 ppm. Rice sprouts were dipped in this solution and put in a plastic cup having a capacity of 60 mL. Ten third-instar larvae of brown rice planthopper were released in the cup, the cup was lidded and placed in a thermostatic chamber at 25° C. for 6 days, and the number of dead larvae were counted for calculation of the mortality by Equation 2. The test was carried out by one series system.

cotton bollworm = assay: Insecticidal test on cotton bollworm; type: in vivo; settings: Helicoverpa armigera, 144 h
Experimental: A wettable powder prepared in accordance with Formulation Example 2 was diluted with water to a concentration of an active ingredient of 500 ppm. Cabbage leaves were dipped in this solution and dried in air and then put in a plastic cup having a capacity of 60 mL. Five hatched larvae of cotton bollworm were released in the cup, and the cup was lidded and placed in a thermostatic chamber at 25° C. for 6 days, and the number of dead larvae were assessed for calculation of the mortality by Equation 2. The test was carried out by two series system.

[1] = 500 ppm active ingredient, soybean seedlings with imago mites dipped, 25° C., 13 days
[2] = 500 ppm active ingredient, cabbage leaves dipped, second-instar larvae, 25° C., 6 days, read-out: mortality
[3] = 500 ppm active ingredient, cabbage leaves dipped, hatched larvae, 25° C., 6 days, read-out: mortality

Cc1cc(F)c(-n2nc(OCC(F)(F)C(F)(F)F)cc2NC(=O)C(F)(F)F)cc1SCC(F)(F)F [1-29, 1-{2-fluoro-4-methyl-5-(2,2,2-trifluoroethylthio)phenyl}-3-(2,2,3,3,3-pentafluoropropoxy)-5-trifluoroacetylaminopyrazole]
≥ 90%: mortality at 500 ppm (diamondback moth; in Brassica oleracea) | pest or weed control at 500 ppm (two-spotted spider mites; [1]) | mortality at 500 ppm (cotton aphid) | mortality at 500 ppm (brown rice planthopper)

CC(=O)Nc1cc(OC(F)(F)C(F)OC(F)(F)C(F)(F)C(F)(F)F)nn1-c1cc(SCC(F)(F)F)c(C)cc1F (stereo not shown) [1-370, 5-acetylamino-1-{2-fluoro-4-methyl-5-(2,2,2-trifluoroethylthio)phenyl}-3-{1,1,2-trifluoro-2-(heptafluoropropoxy)ethoxy}pyrazole]
≥ 90%: mortality at 500 ppm (diamondback moth; [2]) | mortality at 500 ppm (cotton bollworm; [3]) | pest or weed control at 500 ppm (two-spotted spider mites)

CC(=O)Nc1cc(OCC(F)(F)OC(F)(F)C(F)(F)OC(F)(F)F)nn1-c1cc(SCC(F)(F)F)c(C)cc1F [1-374, 5-acetylamino-3-[2,2-difluoro-2-{2-trifluoromethoxy-(1,1,2,2-tetrafluoroethoxy)}ethoxy]-1-{2-fluoro-4-methyl-5-(2,2,2-trifluoroethylthio)phenyl}pyrazole]
≥ 90%: mortality at 500 ppm (diamondback moth; in Brassica oleracea) | mortality at 500 ppm (cotton bollworm; in Brassica oleracea) | pest or weed control at 500 ppm (two-spotted spider mites; [1])

CC(=O)Nc1cc(OCC(F)(F)C(F)(F)C(F)(F)C(F)(F)F)nn1-c1cc(SCC(F)(F)F)c(C)cc1F [1-77, 5-acetylamino-1-{2-fluoro-4-methyl-5-(2,2,2-trifluoroethylthio)phenyl}-3-(2,2,3,3,4,4,5,5,5-nonafluoropentyloxy)pyrazole]
≥ 90%: mortality at 500 ppm (diamondback moth; [2]) | mortality at 500 ppm (cotton bollworm; [3]) | pest or weed control at 500 ppm (two-spotted spider mites) | mortality at 500 ppm (brown rice planthopper)

CC(=O)Nc1cc(OC(F)(F)C(F)(F)C(F)(F)C(F)(F)C(F)(F)F)nn1-c1cc([S+]([O-])CC(F)(F)F)c(C)cc1F (stereo not shown) [1-489, 5-acetylamino-1-{2-fluoro-4-methyl-5-(2,2,2-trifluoroethylsulfinyl)phenyl}-3-(1,1,2,2,3,3,4,4,5,5,5-undecafluoropentyloxy)pyrazole]
≥ 90%: mortality at 500 ppm (diamondback moth; [2]) | mortality at 500 ppm (cotton bollworm; [3]) | pest or weed control at 500 ppm (two-spotted spider mites)

Cc1cc(F)c(-n2nc(OC(F)(F)C(F)OC(F)(F)F)cc2CF)cc1SCC(F)(F)F (stereo not shown) [1-1579, 1-{2-fluoro-4-methyl-5-(2,2,2-trifluoroethylthio)phenyl}-5-fluoromethyl-3-{1,1,2-trifluoro-2-(trifluoromethoxy)ethoxy}pyrazole]
≥ 90%: mortality at 500 ppm (diamondback moth; in Brassica oleracea) | pest or weed control at 500 ppm (two-spotted spider mites; [1]) | mortality at 500 ppm (cotton aphid) | mortality at 500 ppm (brown rice planthopper)

Cc1cc(F)c(-n2nc(OCC(F)(F)C(F)(F)F)cc2C#N)cc1SCC(F)(F)F [1-133, 5-cyano-1-{2-fluoro-4-methyl-5-(2,2,2-trifluoroethylthio)phenyl}-3-(2,2,3,3,3-pentafluoropropoxy)pyrazole]
≥ 90%: mortality at 500 ppm (diamondback moth; in Brassica oleracea) | pest or weed control at 500 ppm (two-spotted spider mites; [1]) | mortality at 500 ppm (cotton aphid) | mortality at 500 ppm (brown rice planthopper)

CC(=O)Nc1cc(OC(F)(F)C(F)(F)C(F)(F)C(F)(F)C(F)(F)F)nn1-c1cc(SCC(F)(F)F)c(C)cc1F [1-488, 5-acetylamino-1-{2-fluoro-4-methyl-5-(2,2,2-trifluoroethylthio)phenyl}-3-(1,1,2,2,3,3,4,4,5,5,5-undecafluoropentyloxy)pyrazole]
≥ 90%: mortality at 500 ppm (diamondback moth; [2]) | mortality at 500 ppm (cotton bollworm; [3])

CC(=O)Nc1cc(OCC(F)(F)C(F)(F)F)nn1-c1cc([S+]([O-])CC(F)(F)Cl)c(C)cc1F (stereo not shown) [1-178, 5-acetylamino-1-{2-fluoro-4-methyl-5-(2-chloro-2,2-difluoroethylsulfinyl)phenyl}-3-(2,2,3,3,3-pentafluoropropoxy)pyrazole]
≥ 90%: mortality at 500 ppm (diamondback moth; [2]) | mortality at 500 ppm (cotton bollworm; [3]) | mortality at 500 ppm (brown rice planthopper)

C#CCNc1cc(OC(F)(F)C(F)OC(F)(F)C(F)(F)C(F)(F)F)nn1-c1cc([S+]([O-])CC(F)(F)F)c(C)cc1F (stereo not shown) [1-358, 1-{2-fluoro-4-methyl-5-(2,2,2-trifluoroethylsulfinyl)phenyl}-5-(2-propynylamino)-3-{1,1,2-trifluoro-2-(heptafluoropropoxy)ethoxy}pyrazole]
≥ 90%: mortality at 500 ppm (diamondback moth; [2]) | mortality at 500 ppm (cotton bollworm; [3])

CNc1cc(OC(F)(F)C(F)C(F)(F)F)nn1-c1cc(SCC(F)(F)F)c(C)cc1F (stereo not shown) [1-186, 1-{2-fluoro-4-methyl-5-(2,2,2-trifluoroethylthio)phenyl}-3-(1,1,2,3,3,3-hexafluoropropoxy)-5-methylaminopyrazole]
≥ 90%: mortality at 500 ppm (diamondback moth; in Brassica oleracea) | pest or weed control at 500 ppm (two-spotted spider mites; [1]) | mortality at 500 ppm (cotton aphid) | mortality at 500 ppm (brown rice planthopper)

CC(=O)Nc1cc(OC(F)(F)C(F)OC(F)(F)C(F)(F)C(F)(F)F)nn1-c1cc([S+]([O-])CC(F)(F)F)c(C)cc1F (stereo not shown) [1-371, 5-acetylamino-1-{2-fluoro-4-methyl-5-(2,2,2-trifluoroethylsulfinyl)phenyl}-3-{1,1,2-trifluoro-2-(heptafluoropropoxy)ethoxy}pyrazole]
≥ 90%: mortality at 500 ppm (diamondback moth; [2]) | mortality at 500 ppm (cotton bollworm; [3]) | pest or weed control at 500 ppm (two-spotted spider mites)

Cc1cc(F)c(-n2nc(OC(F)(F)C(F)OC(F)(F)F)cc2C(F)F)cc1SCC(F)(F)F (stereo not shown) [1-1531, 5-difluoromethyl-1-{2-fluoro-4-methyl-5-(2,2,2-trifluoroethylthio)phenyl}-3-{1,1,2-trifluoro-2-(trifluoromethoxy)ethoxy}pyrazole]
≥ 90%: mortality at 500 ppm (diamondback moth; in Brassica oleracea) | pest or weed control at 500 ppm (two-spotted spider mites; [1]) | mortality at 500 ppm (cotton aphid) | mortality at 500 ppm (brown rice planthopper)

Cc1cc(F)c(-n2nc(OC(F)(F)C(F)OC(F)(F)F)cc2C#N)cc1SCC(F)(F)F (stereo not shown) [1-668, 5-cyano-1-{2-fluoro-4-methyl-5-(2,2,2-trifluoroethylthio)phenyl}-3-{1,1,2-trifluoro-2-(trifluoromethoxy)ethoxy}pyrazole]
≥ 90%: mortality at 500 ppm (diamondback moth; in Brassica oleracea) | pest or weed control at 500 ppm (two-spotted spider mites; [1]) | mortality at 500 ppm (cotton aphid) | mortality at 500 ppm (brown rice planthopper)

COc1cc(OC(F)(F)C(F)OC(F)(F)F)nn1-c1cc(SCC(F)(F)F)c(C)cc1F (stereo not shown) [1-794, 1-{2-fluoro-4-methyl-5-(2,2,2-trifluoroethylthio)phenyl}-5-methoxy-3-{1,1,2-trifluoro-2-(trifluoromethoxy)ethoxy}pyrazole]
≥ 90%: mortality at 500 ppm (diamondback moth; in Brassica oleracea) | pest or weed control at 500 ppm (two-spotted spider mites; [1]) | mortality at 500 ppm (cotton aphid) | mortality at 500 ppm (brown rice planthopper)

CC(=O)Nc1cc(OC(F)(F)C(F)(F)C(F)(F)F)nn1-c1cc([S+]([O-])CC(F)(F)F)c(C)cc1F (stereo not shown) [1-268, 5-acetylamino-1-{2-fluoro-4-methyl-5-(2,2,2-trifluoroethylsulfinyl)phenyl}-3-(1,1,2,2,3,3,3-heptafluoropropoxy)pyrazole]
≥ 90%: mortality at 500 ppm (diamondback moth; [2]) | mortality at 500 ppm (cotton bollworm; [3]) | pest or weed control at 500 ppm (two-spotted spider mites)

CC(=O)Nc1cc(OCC(F)(F)OC(F)(F)C(F)(F)OC(F)(F)F)nn1-c1cc([S+]([O-])CC(F)(F)F)c(C)cc1F (stereo not shown) [1-375, 5-acetylamino-3-[2,2-difluoro-2-{2-trifluoromethoxy-(1,1,2,2-tetrafluoroethoxy)}ethoxy]-1-{2-fluoro-4-methyl-5-(2,2,2-trifluoroethylsulfinyl)phenyl}pyrazole]
≥ 90%: mortality at 500 ppm (diamondback moth; in Brassica oleracea) | mortality at 500 ppm (cotton bollworm; in Brassica oleracea) | pest or weed control at 500 ppm (two-spotted spider mites; [1])

Cc1cc(F)c(-n2nc(OCC(F)(F)C(F)(F)F)cc2C)cc1SCC(F)(F)F [1-91, 1-{2-fluoro-4-methyl-5-(2,2,2-trifluoroethylthio)phenyl}-5-methyl-3-(2,2,3,3,3-pentafluoropropoxy)pyrazole]
≥ 90%: mortality at 500 ppm (diamondback moth; in Brassica oleracea) | pest or weed control at 500 ppm (two-spotted spider mites; [1]) | mortality at 500 ppm (cotton aphid) | mortality at 500 ppm (brown rice planthopper)

Cc1cc(F)c(-n2nc(OC(F)(F)C(F)C(F)(F)F)cc2Cl)cc1[S+]([O-])CC(F)(F)F (stereo not shown) [1-254, 5-chloro 1-{2-fluoro-4-methyl-5-(2,2,2-trifluoroethylsulfinyl)phenyl}-3-(1,1,2,3,3,3-hexafluoropropoxy)pyrazole]
≥ 90%: pest or weed control at 500 ppm (two-spotted spider mites; [1]) | mortality at 500 ppm (cotton aphid) | mortality at 500 ppm (brown rice planthopper)

— patent US8802713B2, “3-alkoxy-1-phenylpyrazole derivatives and pesticides” (Kumiai Chemical Industry Co., Ltd., priority 2007, dated 2014)
